Assay results reported in publication PMC4365786 (Chemistry & biology, 2015).

How the values were obtained:
HCT116 cells = assay: Cell viability assay; type: cell-based; details: Homo sapiens, HCT-116, 96 h, read-out: IC50 for killing HCT116 cells
[1] = tested on: histone acetylation (H3K18ac) in HCT116 cells; assay: Drug washout, histone acetylation by Western blotting; type: cell-based; details: 6 h pulse then washout, time counted from drug addition
[2] = tested on: acetylated histones in HCT116 cells; assay: Western blotting of histone acetylation after 1 h exposure; type: cell-based; details: TSA 0.2 μM, other compounds 2 μM
HDACs in HCT116 = type: cell-based; details: HCT116 (Fig. 2C) and HepG2 cells (data not shown)
MDA-MB-231 cells [3] = assay: Cell viability assay; type: cell-based; details: read-out: IC50 viability MDA-MB-231, CellTiter-Glo, 96 h (Fig. 3C)
MDA-MB-231 cells [4] = assay: Wound healing cell migration assay; type: cell-based; details: MDA-MB-231 monolayer scratch; UF010 at 1 μM
MDA-MB-231 cells [5] = assay: Cell cycle analysis by FACS; type: cell-based; details: MDA-MB-231, 24 h exposure
[6] = tested on: α-tubulin acetylation in HCT116 and A549 cells; assay: Western blotting of α-tubulin acetylation; type: cell-based; details: TSA 0.2 μM, UF010 2 μM, 1 h before lysis
HDAC2 = HDAC2 (Homo sapiens, UniProt Q92769); assay: HDAC2 inhibition kinetics; type: biochemical; details: purified HDAC2
Sin3 complex = assay: Inhibition of the Sin3 complex; details: data not shown
[7] = bovine, serum
HepG2 cells = assay: Cell viability assay; type: cell-based; details: CellTiter-Glo, 96 h

Sequence of HDAC2 (Q92769 whole entry): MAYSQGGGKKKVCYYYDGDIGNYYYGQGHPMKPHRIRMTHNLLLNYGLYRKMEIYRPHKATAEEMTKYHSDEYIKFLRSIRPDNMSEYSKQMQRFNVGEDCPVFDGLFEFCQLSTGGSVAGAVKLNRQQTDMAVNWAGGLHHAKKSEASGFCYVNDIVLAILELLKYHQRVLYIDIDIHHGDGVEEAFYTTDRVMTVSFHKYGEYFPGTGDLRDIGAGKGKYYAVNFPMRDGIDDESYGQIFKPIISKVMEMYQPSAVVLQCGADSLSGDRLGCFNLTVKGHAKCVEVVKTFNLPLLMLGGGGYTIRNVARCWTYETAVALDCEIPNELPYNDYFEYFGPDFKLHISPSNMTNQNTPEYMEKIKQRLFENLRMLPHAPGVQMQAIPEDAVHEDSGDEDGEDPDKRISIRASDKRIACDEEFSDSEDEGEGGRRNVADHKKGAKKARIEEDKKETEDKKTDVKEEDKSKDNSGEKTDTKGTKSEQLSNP

Compound: Nc1ccccc1NC(=O)c1ccc(CNC(=O)OCc2cccnc2)cc1 [MS-275, entinostat]
- IC50 (HCT116 cells): 2.1 µM
- time up to which induced histone acetylation was maintained [1]: at least 48 h
- induction of histone acetylation [2]: only slightly induced acetylation at several sites but failed to induce acetylation at most sites

Compound: CCCCNNC(=O)c1ccc(Br)cc1 [UF010]
- fold more potent than MS-275 against HDACs in cells (HDACs in HCT116): about 5 fold
- IC50 (MDA-MB-231 cells [3]): 29.1 µM
- effect on cell migration (MDA-MB-231 cells [4]): markedly slowed migration
- effect on cell cycle progression (MDA-MB-231 cells [5]): mainly blocked G1/S transition
- effect on α-tubulin acetylation [6]: had no effect
- mechanism of HDAC2 inhibition vs. substrate (HDAC2): competitive inhibitor
- time up to which induced histone acetylation was maintained [1]: up to 96 h
- inhibition of the Sin3 complex (Sin3 complex): can inhibit
- induction of histone acetylation [2]: consistently induced the accumulation of acetylated histones at all sites
- half-life in cell culture medium [7]: 15.8 h

Compound: CC(/C=C/C(=O)NO)=C\[C@@H](C)C(=O)c1ccc(N(C)C)cc1 [TSA, trichostatin A, reference compound]
- effect on α-tubulin acetylation [6]: dramatically increased
- induction of histone acetylation [2]: strongly induced acetylation at some sites but weakly at other sites

Compound: C/C=C1\NC(=O)[C@H]2CSSCC/C=C/[C@H](CC(=O)N[C@H](C(C)C)C(=O)N2)OC(=O)[C@H](C(C)C)NC1=O [Romi-depsin, romidepsin]
- time up to which induced histone acetylation was maintained [1]: up to 24 h

Compound: O=C(CCCCCCC(=O)Nc1ccccc1)NO [SAHA, vorinostat, reference compound]
- effect on cell cycle progression (MDA-MB-231 cells [5]): inhibited G1/S progression at 1 μM but induced a strong G2/M block at 10 μM

Compound: CCCCNNC(=O)c1ccc(N(C)C)cc1 [SR-3208]
- fold more potent than UF010 in eliciting cytotoxicity (HepG2 cells): 3 fold
